Source: patent US12075697B2, “Inert solution-processable molecular chromophores for organic electronic devices” (The Regents of the University of California, priority 2012, dated 2024)

Legend:
Type in all cases: physicochemical
[1] = UV-visible absorption spectroscopy; settings: for optical band gap: from λonset
Procedure: (§1) Optical properties were investigated using UV-visible absorption spectroscopy. […] Solution cyclic voltammetry measurements indicated the highest occupied molecular orbital (HOMO) and lowest unoccupied molecular orbital (LUMO) were −5.12 and −3.34 eV, respectively, and line up appropriately with the frontier molecular orbitals of common fullerene acceptors.
UV-vis: UV-visible spectroscopy were recorded using either a Beckman Coulter DU 800 series or Perkin Elmer Lambda 750 spectrophotometer at room temperature unless otherwise noted. All solution UV-vis experiments were run in CHCl3. Films were prepared by spin-coating CHCl3 or chlorobenzene solutions onto glass substrates. Films were annealed directly on a hot plate for 2 minutes.

[2] = Solution cyclic voltammetry (HOMO/LUMO levels)
Procedure: as §1
Electrochemistry: All electrochemical measurements were performed using CHI instrument model 730B in a standard three-electrode, one compartment configuration equipped with Ag/AgCl electrode, Pt wire and Glassy carbon electrode (dia. 3 mm), as the pseudo reference, counter electrode and working electrode respectively. Glassy carbon electrodes were polished with alumina. The cyclic voltammetry (CV) experiments were performed in anhydrous dichloromethane solution with ˜0.1 M tetrabutylammonium hexafluorophosphate (TBAPF6) as the supporting electrolyte at scan rate 50 mV/s unless otherwise stated. All electrochemical solutions were purged with dry Ar for 15 minutes to deoxygenate the system. Solution CV measurements were carried out with a small molecule concentration of ˜1 mg/mL in CH2Cl2. Ferrocene was used as an internal standard. The HOMO and LUMO levels were obtained by correlating the onsets (Eox^Fc/Fc+, Erd^Fc/Fc+) to the normal hydrogen electrode (NHE), assuming HOMO of Fc/Fc^+ to be 4.88 eV.

[3] = Acid sensitivity: solution absorption profile as function of trifluoroacetic acid concentration; settings: trifluoroacetic acid in chloroform, up to ten equivalents
Excerpt: To probe acid sensitivity, the solution absorption profiles of p-DTS(FBTTh2)2 (see Scheme 1, above) and d-DTS(PTTh2)2
[drawing 71] a pyridine-containing analog, were monitored as function of concentration of trifluoroacetic acid.

CCCCCCc1ccc(-c2ccc(-c3cc(F)c(-c4cc5c(s4)-c4sc(-c6c(F)cc(-c7ccc(-c8ccc(CCCCCC)s8)s7)c7nsnc67)cc4[Si]5(CC(CC)CCCC)CC(CC)CCCC)c4nsnc34)s2)s1 (stereo not drawn) [p-DTS(FBTTh2)2, 7,7′-(4,4-bis(2-ethylhexyl)-4H-silolo[3,2-b:4,5-b′]dithiophene-2,6-diyl)bis(6-fluoro-4-(5′-hexyl-[2,2′-bithiophen]-5-yl)benzo[c][1,2,5]thiadiazole)]
λmax ([1]; solid state (thin film)): 678 nm | λonset ([1]; solid state (thin film)): 800 nm | optical band gap ([1]; solid state): 1.55 eV | λmax ([1]; solution (chloroform)): 590 nm | λonset ([1]; solution (chloroform)): 670 nm | optical band gap ([1]; solution (chloroform)): 1.85 eV | highest occupied molecular orbital (HOMO) [2]: −5.12 eV | lowest unoccupied molecular orbital (LUMO) [2]: −3.34 eV | change of absorption spectrum on addition of acid [3]: remains effectively unchanged
